Laboratory results: patent US20150141414A1, “Formulation of Stable Recombinant Alpha-Fetoprotein Conjugated with Anti-Tumor Substance in Target-Delivery System for Treatment of Cancer and Autoimmune Disease” (priority 2013, published 2015)
Where two headings read alike, the source gives them in different places. Starred links: 1 amine or outer side, 2 acyl side, 3 side chain; linkers in the order of their positions; H or OH if unused. Positions of bridges follow the written chain, without caps; N, C: chain ends. Non-standard residues stand in square brackets, D forms with d. Residues, ends and D or L forms follow the SMILES beside them. Chains are numbered I, II in the order given. Actinocin(9to1) = Cc1c2oc3c(C)ccc(C(=O)[*:1])c3nc-2c(C(=O)[*:2])c(N)c1=O; NMeV = CN[C@H](C(=O)O)C(C)C; Sar = CNCC(=O)O

Tests used:
[1] = tested on: rat; settings: cited from earlier work
[2] = tested on: pigeon; settings: intravenous injection; cited from earlier work
[3] = tested on: frog; settings: intravenous injection; cited from earlier work
[4] = tested on: mouse; settings: cited from earlier work
[5] = tested on: lymphocyte of an average healthy person; test: Dose-dependent survival of lymphocytes of a healthy person; assay type: cell-based; settings: Homo sapiens, read-out: 50% growth inhibition concentration
Description: Each value depicted in FIGS. 1A and 1B is the mean of three determinations with coefficient of variation less than 20%.

[6] = tested on: Hela cervical cancer cells; test: MTT cytotoxicity assay, Hela cervical cancer cells; assay type: cell-based; settings: Homo sapiens, mean of three determinations, read-out: 50% growth inhibition concentration (1050)
Description: The cytotoxicity of dactinomycin incorporated in PLGA conjugated with rAFP was tested with Hela cervical cancer cells. It is recognized that the use of PLGA as the controlled release polymer system is particularly suitable for the intent of the present invention because PLGA is well known for its safety in clinic. The Hela cells were doused with both dactinomycin in bulk. MTT assay was then performed to quantify the inhibitory concentration. […] 1050 was calculated from the cell viability data as the drug concentration in which cell growth was inhibited by 50%.

[7] = tested on: cat; settings: cited from earlier work

SMILES: COc1cc2c(Nc3ccc(Br)cc3F)ncnc2cc1OCC1CCN(C)CC1 [vandetanib]
- LD50 intravenous ([1]; rats, intravenous): 17-41 mg/kg body weight

SMILES: C[C@H]1O[C@@H](O[C@H]2[C@@H](O)C[C@H](O[C@H]3[C@@H](O)C[C@H](O[C@H]4CC[C@@]5(C)[C@H](CC[C@@H]6[C@@H]5CC[C@]5(C)[C@@H](C7=CC(=O)OC7)CC[C@]65O)C4)O[C@@H]3C)O[C@@H]2C)C[C@H](O)[C@@H]1O [digitoxin]
- LD50 intravenous [2]: 0.32 mg/kg
- LD50 intravenous [3]: 0.73 mg/kg
- LD50 intravenous ([4]; mouse, intravenous injection): 4.1 mg/kg

SMILES: Cc1c2oc3c(C)ccc(C(=O)N[C@@H]4C(=O)N[C@H](C(C)C)C(=O)N5CCC[C@H]5C(=O)N(C)CC(=O)N(C)[C@@H](C(C)C)C(=O)O[C@@H]4C)c3nc-2c(C(=O)N[C@@H]2C(=O)N[C@H](C(C)C)C(=O)N3CCC[C@H]3C(=O)N(C)CC(=O)N(C)[C@@H](C(C)C)C(=O)O[C@@H]2C)c(N)c1=O [dactinomycin in bulk, Dactinomycin] (I: T[dV]P[Sar][NMeV] / II: T[dV]P[Sar][NMeV]; ester I:1-I:C, II:1-II:C; linker I:N-II:N via Actinocin(9to1))
- IC50 [5]: 23.8 nM
- IC50 [6]: 1.7 nM
- oral LD50 ([1]; rat, oral): 7.2 mg/kg
- lethal dose as multiple of maximum recommended daily human dose (body surface area basis) ([1]; rats, intravenous 500 mcg/kg): 5.4 times
- lethal intravenous dose ([1]; rats, intravenous): 0.5 mg/kg
- lethal dose as multiple of maximum recommended daily human dose (body surface area basis) ([4]; mice, intravenous 700 mcg/kg): 3.8 times
- lethal intravenous dose ([4]; mice, intravenous): 0.7 mg/kg
- oral LD50 ([4]; mouse, oral): 7.8 mg/kg

SMILES: CN(Cc1cnc2nc(N)nc(N)c2n1)c1ccc(C(=O)N[C@@H](CCC(=O)O)C(=O)O)cc1 [methotrexate]
- LD50 intravenous ([1]; rats, intravenous): 14 mg/kg body weight

SMILES: C[C@]12CC[C@H](O)C[C@H]1CC[C@@H]1[C@@H]2CC[C@]2(C)[C@@H](c3ccc(=O)oc3)CC[C@]12O [bufalin]
- LD50 intravenous ([4]; mouse, intravenous): 0.74 mg/kg
- LD50 intravenous [7]: 0.14 mg/kg
